According to patent US7265103B2, “Substituted amino isoxazoline derivatives and their use as anti-depressants” (Janssen Pharmaceutica NV., priority 2002, dated 2007):

Columns and labels:
[1] = target: T1, hα2C receptor (Homo sapiens, UniProt P18825); experiment: Radioligand binding experiment for α2C-adrenergic receptor ([3H]-raulwolscine); conditions: CHO cell membranes with human α2C receptor, [3H]raulwolscine 1 nM; read-out: pIC50 α2C (converted)
T1 construct: expressed in transfected cells; host or cells: CHO cells
T1 sequence (P18825 1-462): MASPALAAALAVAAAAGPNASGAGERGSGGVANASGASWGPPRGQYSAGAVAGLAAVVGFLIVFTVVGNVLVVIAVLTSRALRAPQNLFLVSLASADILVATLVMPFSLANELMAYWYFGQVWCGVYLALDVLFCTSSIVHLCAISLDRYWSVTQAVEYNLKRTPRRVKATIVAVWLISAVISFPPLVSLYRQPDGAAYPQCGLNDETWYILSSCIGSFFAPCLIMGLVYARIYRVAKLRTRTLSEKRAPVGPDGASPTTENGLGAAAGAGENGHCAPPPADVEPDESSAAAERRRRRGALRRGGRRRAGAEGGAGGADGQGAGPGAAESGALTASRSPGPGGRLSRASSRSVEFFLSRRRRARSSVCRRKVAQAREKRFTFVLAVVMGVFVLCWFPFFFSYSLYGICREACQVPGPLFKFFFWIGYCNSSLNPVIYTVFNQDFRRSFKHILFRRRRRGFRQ
Procedure: (§1) The interaction of the compounds of Formula (I) with hα2-receptors and h5-HT-transporters was assessed in in vitro radioligand binding experiments. In general, a low concentration of a radioligand with a high binding affinity for a particular receptor or transporter is incubated with a sample of a tissue preparation enriched in a particular receptor or transporter or with a preparation of cells expressing cloned human receptors in a buffered medium. During the incubation, the radioligand binds to the receptor or transporter. When equilibrium of binding is reached, the receptor bound radioactivity is separated from the non-bound radioactivity, and the receptor- or transporter-bound activity is counted. The interaction of the test compounds with the receptor is assessed in competition binding experiments. Various concentrations of the test compound are added to the incubation mixture containing the receptor- or transporter preparation and the radioligand. The test compound in proportion to its binding affinity and its concentration inhibits binding of the radioligand. The radioligand used for hα2A, hα2B and hα2C receptor binding was [^3H]-raulwolscine and for the h5-HT transporter was [^3H]paroxetine.
(§2) CHO cells, stabile transfected with human adrenergic-α2A-, -α2B or α2C receptor cDNA, were cultured in Dulbecco's Modified Eagle's Medium (DMEM)/Nutrient mixture Ham's F12 (ratio 1:1)(Gibco, Gent-Belgium) supplemented with 10% heat inactivated fetal calf serum (Life Technologies, Merelbeke-Belgium) and antibiotics (100 IU/ml penicillin G, 100 μg/ml streptomycin sulphate, 110 μg/ml pyruvic acid and 100 μg/ml L-glutamine). One day before collection, cells were induced with 5 mM sodiumbutyrate. Upon 80-90% of confluence, cells were scraped in phosphate buffered saline without Ca^2+ and Mg^2+ and collected by centrifugation at 1500×g for 10 min. The cells were homogenised in Tris-HCl 50 mM using an Ultraturrax homogenizer and centrifuged for 10 min at 23,500×g. The pellet was washed once by resuspension and rehomogenization and the final pellet was resuspended in Tris-HCl, divided in 1 ml aliquots and stored at −70° C.
(§3) Membranes were thawed and re-homogenized in incubation buffer (glycylglycine 25 mM, pH 8.0). In a total volume of 500 μl, 2-10 μg protein was incubated with [^3H]raulwolscine (NET-722) (New England Nuclear, USA) (1 nM final concentration) with or without competitor for 60 min at 25° C. followed by rapid filtration over GF/B filter using a Filtermatel 96 harvester (Packard, Meriden, Conn.). Filters were rinsed extensively with ice-cold rinsing buffer (Tris-HCl 50 mM pH 7.4). Filter-bound radioactivity was determined by scintillation counting in a Topcount (Packard, Meriden, Conn.) and results were expressed as counts per minute (cpm). Non-specific binding was determined in the presence of 1 μM oxymetazoline for hα2A- and hα2B receptors and 1 μM spiroxatrine for hα2C receptors.
(§4) Data from assays in the presence of compound were calculated as a percentage of total binding measured in the absence of test compound. Inhibition curves, plotting percent of total binding versus the log value of the concentration of the test compound, were automatically generated, and sigmoidal inhibition curves were fitted using non-linear regression. The pIC50 values of test compounds were derived from individual curves.

[2] = target: T2, hα2A receptor (Homo sapiens, UniProt P08913); experiment: Radioligand binding experiment for α2A-adrenergic receptor ([3H]-raulwolscine); conditions: CHO cell membranes with human α2A receptor, [3H]raulwolscine 1 nM; read-out: pIC50 α2A (converted)
T2 construct: expressed in transfected cells; host or cells: CHO cells
T2 sequence (P08913 1-465): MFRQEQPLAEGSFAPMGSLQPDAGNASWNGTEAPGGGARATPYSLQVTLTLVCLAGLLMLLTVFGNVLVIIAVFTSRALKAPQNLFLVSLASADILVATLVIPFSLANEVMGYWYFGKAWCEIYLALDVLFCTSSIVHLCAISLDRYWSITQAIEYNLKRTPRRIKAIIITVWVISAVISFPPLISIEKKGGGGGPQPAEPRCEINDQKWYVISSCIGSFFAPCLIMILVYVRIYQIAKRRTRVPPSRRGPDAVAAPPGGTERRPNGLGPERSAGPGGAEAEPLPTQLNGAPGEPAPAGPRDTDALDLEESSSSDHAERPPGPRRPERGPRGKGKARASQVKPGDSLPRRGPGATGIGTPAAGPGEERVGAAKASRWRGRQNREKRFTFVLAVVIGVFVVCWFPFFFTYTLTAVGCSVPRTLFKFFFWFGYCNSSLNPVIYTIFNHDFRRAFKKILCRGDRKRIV
Procedure: as §1, §2, §3, §4

[3] = target: T3, h5-HT transporter (Homo sapiens, UniProt P31645); experiment: Radioligand binding experiment for 5-HT transporter ([3H]paroxetine); conditions: human platelet membranes, [3H]paroxetine 0.5 nM
T3 construct: Human platelet membranes (Oceanix Biosciences Corporation, Hanover, Md., USA) were thawed; tissue Oceanix Biosciences Corporation; host or cells: human platelet membranes
T3 sequence (P31645 whole entry): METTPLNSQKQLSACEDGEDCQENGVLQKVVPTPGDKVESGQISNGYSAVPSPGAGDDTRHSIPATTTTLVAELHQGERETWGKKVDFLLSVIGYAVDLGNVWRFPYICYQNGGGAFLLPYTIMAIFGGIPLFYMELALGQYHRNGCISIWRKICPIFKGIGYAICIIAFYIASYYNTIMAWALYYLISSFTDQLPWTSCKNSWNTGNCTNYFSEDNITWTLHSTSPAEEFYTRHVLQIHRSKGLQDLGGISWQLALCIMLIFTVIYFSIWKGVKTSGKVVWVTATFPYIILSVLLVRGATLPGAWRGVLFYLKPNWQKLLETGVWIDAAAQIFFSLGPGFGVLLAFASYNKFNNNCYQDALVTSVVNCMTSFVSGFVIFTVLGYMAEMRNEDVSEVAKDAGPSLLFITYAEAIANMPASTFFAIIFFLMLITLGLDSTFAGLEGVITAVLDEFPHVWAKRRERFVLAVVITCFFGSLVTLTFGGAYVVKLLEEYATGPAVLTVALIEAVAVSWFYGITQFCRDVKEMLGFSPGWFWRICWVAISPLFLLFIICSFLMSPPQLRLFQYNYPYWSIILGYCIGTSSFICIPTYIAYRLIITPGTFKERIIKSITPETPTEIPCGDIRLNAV
Procedure: as §1
Human platelet membranes (Oceanix Biosciences Corporation, Hanover, Md., USA) were thawed, diluted in buffer (Tris-HCl 50 mM, 120 mM NaCl and 5 mM KCl) and quickly (max 3 s) homogenised with an Ultraturrax homogenizer. In a total volume of 250 μL, 50-100 μg protein was incubated with [^3H]paroxetine (NET-869) (New England Nuclear, USA) (0.5 nM final concentration) with or without competitor for 60 min at 25° C. Incubation was stopped by rapid filtration of the incubation mixture over GF/B filters, pre-wetted with 0.1% polyethyleneamine, using a Filtermatel 96 harvester (Packard, Meriden, Conn.). Filters were rinsed extensively with ice-cold buffer and radioactivity on the filters was counted in a Topcount liquid scintillation counter (Packard, Meriden, Conn.). Data were expressed as cpm. Imipramine (at 1 μM final concentration) was used to determine the non-specific binding.
as §4

Compound	IC50 [1]	IC50 [2]	IC50 [3]
COc1cc2c(cc1N1CCN(C)CC1)OCC1C2=NOC1CN1CCN(CC(C)=Cc2cccc(F)c2)CC1 (stereo not drawn) [Compound 76]	0.794 nM	3.98 nM	3.16 nM
CCNc1ccc2c(c1)OCC1C2=NOC1CN1CCN(CC(C)=Cc2ccccc2)CC1 (stereo not drawn) [Compound 18]	1.26 nM	6.31 nM	50.1 nM
C/C(=C\c1ccccc1)CN1CCN(CC2ON=C3c4ccc(N(C)CCN(C)C)cc4OCC32)CC1 (stereo not drawn) [Compound 1]	1 nM	1.26 nM	6.31 nM
CC(=Cc1ccccc1)CN1CCN(CC2ON=C3c4ccc(NC(=O)C5CC5)cc4OCC32)CC1 (stereo not drawn) [Compound 51]	1 nM	1.58 nM	15.8 nM
CCNC(=O)N(C(=O)NCC)c1ccc2c(c1)OCC1C2=NOC1CN1CCN(CC(C)=Cc2ccc(F)cc2)CC1 (stereo not drawn) [Compound 60]	398 nM	3160 nM	6310 nM
CNCCNc1ccc2c(c1)OCC1C2=NOC1CN1CCN(CC(C)=Cc2ccc(F)cc2)CC1 (stereo not drawn) [Compound 20]	3.16 nM	31.6 nM	7.94 nM
COc1cc2c(cc1N(C)CCN(C)C)OCC1C2=NOC1CN1CCN(C/C(C)=C/c2ccccc2)CC1 (stereo not drawn) [Compound 11]	1.58 nM	2 nM	3.16 nM
CC(=Cc1ccc(F)cc1)CN1CCN(CC2ON=C3c4ccc(N5CC=CCC5)cc4OCC32)CC1 (stereo not drawn) [Compound 135]	25.1 nM	39.8 nM	79.4 nM
CNc1cc2c(cc1OC)C1=NOC(CN3CCN(CC(C)=Cc4cccc(F)c4)CC3)C1CO2 (stereo not drawn) [Compound 17]	2 nM	7.94 nM	12.6 nM
COc1cc2c(cc1NCC(C)C)OCC1C2=NOC1CN1CCN(CC(C)=Cc2ccc(F)cc2)CC1 (stereo not drawn) [Compound 116]	158 nM	200 nM	79.4 nM
COc1cc2c(cc1N1CCCC1C)OCC1C2=NOC1CN1CCN(CC(C)=Cc2ccc(F)cc2)CC1 (stereo not drawn) [Compound 101]	31.6 nM	39.8 nM	158 nM
COc1cc2c(cc1NCC1(C)CC1)OCC1C2=NOC1CN1CCN(CC(C)=Cc2ccc(F)cc2)CC1 (stereo not drawn) [Compound 128]	200 nM	200 nM	158 nM
CC(=Cc1ccc(F)cc1)CN1CCN(CC2ON=C3c4ccc(NC(C)C)cc4OCC32)CC1 (stereo not drawn) [Compound 129]	31.6 nM	63.1 nM	158 nM
C/C(=C\c1ccccc1)CN1CCN(CC2ON=C3c4ccc(NC(=O)[C@H]5CCCN5)cc4OCC32)CC1 (stereo partly drawn) [Compound 56]	0.501 nM	3.16 nM	12.6 nM
COc1cc2c(cc1NC(C)=O)OCC1C2=NOC1CN1CCN(CC(C)=Cc2cccc(F)c2)CC1 (stereo not drawn) [Compound 49]	0.251 nM	1.26 nM	7.94 nM
